Results reported in patent publication US4367226A, “N-Sugar compounds, compositions and uses thereof” (priority 1980, dated 1983).
Values after ≈ are worked out from the molar mass of the structure shown.

Assays:
Pseudomonas aeruginosa = assay: Broth dilution MIC / antimicrobial test against Pseudomonas aeruginosa (A.T.C.C. 15442); format: cell-based; conditions: 37°
Excerpt: (§1) In testing for the anti-microbial activity five different types of organics were selected: Staphyloccoccus aureus, Escherichia coli, Pseudomonas aeruginosa, Candida albicans, and Aspergillus niger. The inclusion of Asperigillus niger and Pseudomonas aeruginosa in the inocula is recommended to ensure a wide range of protection because these ubiquitous organisms grow in a large variety of formulations and relatively resistant to antimicrobial agents. The incidence of contaminated cosmetics has been the subject of several investigations ^(6)(7). Pseudomonas was the predominant organism found.
(§2) One Gram-positive, two Gram-negative bacteria, one each of a yeast and a mold were selected for the test. These were, respectively, Staphylococcus aureus(A.T.C.C. 6538), Escherichia coli(A.T.C.C. 11229), Pseudomonas aeruginosa(A.T.C.C. 15442), Candida albicans(A.T.C.C. 10259), and Aspergillus niger(A.T.C.C. 1015).
(§3) Portions of four or five discrete colonies representative of the organisms to be tested were inoculated into 10.0 ml. of a suitable broth medium and marked accordingly. The inoculated tubes were incubated at 37° for S. aureus, E. coli, and P. aeruginosa, and at 25° for C. albicans and A. niger for 18-24 hours.
(§4) Medium: Trypticase Soy Agar(BBL) was used for bacteria, and Sabouraud Maltose Agar(BBL) for the yeast and the mold.
(§5) Inoculation of agar plates and incubation: A 10 cm. round plastic plate was used for the preparation of medium. Each plate was divided into four areas by marking on the bottom of the plate. The agar plate was streaked by the appropriate inoculation loop. Three thin loopful of inocula were applied for covering the complete agar plate. Approximately 10-15 mg. of compound to be tested was placed at the corresponding area of each inoculated plate. The plates inoculated with S. aureus, E. coli, and P. aeruginosa were incubated at 37° for 24-48 hours, and those incubated with C. albicans and A. niger were incubated at 25° for 48-72 hours. […]

Aspergillus niger = assay: Broth dilution MIC / antimicrobial test against Aspergillus niger (A.T.C.C. 1015); format: cell-based; conditions: 25°
Excerpt: as §1, §2, §3
Medium: Trypticase Soy Agar(BBL) was used for bacteria, and Sabouraud Maltose Agar(BBL) for the yeast and the mold. […]

Candida albicans = assay: Broth dilution MIC / antimicrobial test against Candida albicans (A.T.C.C. 10259); format: cell-based; conditions: 25°
Excerpt: as §1, §2, §3, §4, §5

[1] = LD50 test (acute toxicity, intraperitoneal); format: in vivo, Charles River CD-1 male mice; conditions: 2000 mg/kg, one mouse
Protocol: The toxicity of some of the compounds was ascertained in an LD50 test.
The LD50 tests were performed for the following compounds; N-β-D-glucopyranosyl-N'-n-butylthiourea, N-β-D-glucopyranosyl-N'-benzylthiourea, N-β-D-glucopyranosyl-piperidine-1-thiocarboxamide, N-β-D-glucopyranosylthiourea, and ethyl 2-(N-β-D-glucopyranosyl)aminothiazole-4-carboxylate. The compounds were administered intraperitoneally dissolved or suspended in normal saline by 20-25 gm Charles River CD-1 male mice.
Two animals received 1000 mg/kg and one animal received 2000 mg/kg. With the exception of the animal given by ethyl 2-(N-β-D-glucopyranosyl)aminothiazole-4-carboxylate at 2000 mg/kg, all animals survived the acute effects and appeared normal after 1 week.

Staphylococcus aureus = assay: Broth dilution MIC / antimicrobial test against Staphylococcus aureus (A.T.C.C. 6538); format: cell-based; conditions: for activity against S. aureus (in words): 37°
Excerpt: as §1, §2, §3, §4
Inoculation of agar plates and incubation: A 10 cm. round plastic plate was used for the preparation of medium. Each plate was divided into four areas by marking on the bottom of the plate. The agar plate was streaked by the appropriate inoculation loop. Three thin loopful of inocula were applied for covering the complete agar plate. Approximately 10-15 mg. of compound to be tested was placed at the corresponding area of each inoculated plate. The plates inoculated with S. aureus, E. coli, and P. aeruginosa were incubated at 37° for 24-48 hours, and those incubated with C. albicans and A. niger were incubated at 25° for 48-72 hours.
Interpretation and result: After incubation, if a zone of inhibition was visible around the compound placed, the susceptibility of the organism to the compound was considered to be positive. The degree of positiveness of the compound was decided by the size of the zone.
The broth dilution method was chosen for the determination of the MIC. A 10^-1 molar stock solution was prepared by dissolving or suspending the required amount of compound in the sterilized distilled water. The desired number of sterile test tubes were aseptically filled with 9.0 ml. of Trypticase Soy Broth(BBL). 1.0 ml. of the stock solution was added to the first tube and mixed thoroughly. With a sterile pipette, 1.0 ml. was transferred from the first tube to the second tube. […]

Escherichia coli = assay: Broth dilution MIC / antimicrobial test against Escherichia coli (A.T.C.C. 11229); format: cell-based; conditions: 37°
Excerpt: as §1, §2, §3, §4, §5

bacterial growth = assay: Preservative action in cosmetic formulations; conditions: for preservation against bacterial combination: Examples I and III of U.S. Pat. No. 3,957,970, replacing the 0.05% preservative by an equal amount
Excerpt: The compositions of this invention are of particular utility in aqueous cosmetic formulations to inhibit bacterial growth. Reference is hereby made to cosmetic formulations as disclosed in the following U.S. Pat. Nos.: (1) 4,159,318 (2) 4,164,564, (3) 4,137,302, (4) 4,148,875, (5) 4,001,141, (6) 4,048,338, (7) 3,919,430 and (8) 3,957,970 as exemplary of formulations with which the present thioureas and thiazoles can be used; thus, Example 4 of U.S. Pat. No. 4,137,302 discloses ethyl p-dimethylaminobenzoate (0.75%).
In Example 6 of U.S. Pat. No. 4,048,338, the 0.18 parts of methyl p-hydroxybenzoate is replaced by equal parts of the compound of Example 10 on the one hand and that of Example 12 on the other hand.
Each of the foregoing U.S. Patents (1) to (8) is hereby incorporated by reference thereto.

[2] = Example 6 of U.S. Pat. No. 4,048,338, replacing 0.18 parts of methyl p-hydroxybenzoate by equal parts

In the case of OC[C@H]1O[C@@H](NC(=S)N2CCCCC2)[C@H](O)[C@@H](O)[C@@H]1O [Example 11, N-β-D-Glucopyranosylpiperidine-1-thiocarboxamide], the “activity against P. aeruginosa (in words)” value (Pseudomonas aeruginosa) is reported as “particularly outstanding activity”.
In the case of Br.CCOC(=O)c1csc(N[C@@H]2O[C@H](CO)[C@@H](O)[C@H](O)[C@H]2O)n1 [Example 15, Ethyl 2-(N-β-D-glucopyranosyl)aminothiazole-4-carboxylate hydrobromide], the “activity against A. niger (in words)” value (Aspergillus niger) is reported as “not against A. Niger”, the “activity against C. albicans (in words)” value (Candida albicans) is reported as “broad activities against 4 organisms” and the “activity against P. aeruginosa (in words)” value (Pseudomonas aeruginosa) is reported as “broad activities against 4 organisms”. For the same molecule, the death [1] was “dying two days later”, the “activity against S. aureus (in words)” value (Staphylococcus aureus) was “broad activities against 4 organisms” and the “activity against E. coli (in words)” value (Escherichia coli) was “broad activities against 4 organisms”. For the same molecule, the “preservation against bacterial combination” value (from here on “preservation”) (bacterial growth) was “excellent preservation against bacterial combination”.
With OC[C@H]1O[C@@H](NC(=S)NCc2ccc(Cl)cc2)[C@H](O)[C@@H](O)[C@@H]1O [Example 12, N-β-D-Glucopyranosyl-N'-4-chlorobenzylthiourea] the “activity against C. albicans (in words)” value (Candida albicans) was “broad inhibitory activities”, the “activity against S. aureus (in words)” value (Staphylococcus aureus) was “broad inhibitory activities” and the “activity against E. coli (in words)” value (Escherichia coli) was “broad inhibitory activities”. The preservative action (bacterial growth; [2]) was “excellent preservative action” and the “preservation” value (bacterial growth) was “excellent preservation against bacterial combination”.
For OC[C@H]1O[C@@H](NC(=S)NCc2ccccc2)[C@H](O)[C@@H](O)[C@@H]1O [Example 5, N-β-D-Glucopyranosyl-N'-benzylthiourea], the “activity against P. aeruginosa (in words)” value (Pseudomonas aeruginosa) was “particularly outstanding activity” and the “activity against E. coli (in words)” value (Escherichia coli) was “particularly outstanding activity”.
In the case of C=CCNC(=S)N[C@@H]1O[C@H](CO)[C@@H](O)[C@H](O)[C@H]1O [Example 10, N-β-D-Glucopyranosyl-N'-allylthiourea], the “activity against S. aureus (in words)” value (Staphylococcus aureus) is reported as “particularly outstanding activity”, the MIC (Staphylococcus aureus; Staphylococcus aureus, S. aureus A.T.C.C. 6538, broth dilution, 24-48 hours at 37°, read-out: M.I.C. (Minimal Inhibitory Concentration)) is reported as 100 µM (≈ 27.8 µg/mL) and the preservative action (bacterial growth; Example 4 of U.S. Pat. No. 4,137,302, in lieu of ethyl p-dimethylaminobenzoate (0.75%)) is reported as “excellent preservative action”. The preservative action (bacterial growth; [2]) was “excellent preservative action” and the “preservation” value (bacterial growth) was “excellent preservation against bacterial combination”.
With CCCCNC(=S)N[C@@H]1O[C@H](CO)[C@@H](O)[C@H](O)[C@H]1O [Example 2, N-β-D-Glucopyranosyl-N'-n-butylthiourea] the “activity against A. niger (in words)” value (Aspergillus niger) was “particularly outstanding activity” and the “activity against C. albicans (in words)” value (Candida albicans) was “particularly outstanding activity”.
